Results taken from publication PMC8041284, “Tunable Methacrylamides for Covalent Ligand Directed Release Chemistry” (Journal of the American Chemical Society, 2021).

Molecular target: BTK (Homo sapiens, UniProt Q06187)
Assay: biochemical
Conditions: read-out: BTK inhibition (%)

BTK, sequence (Q06187 402-655 limits assumed): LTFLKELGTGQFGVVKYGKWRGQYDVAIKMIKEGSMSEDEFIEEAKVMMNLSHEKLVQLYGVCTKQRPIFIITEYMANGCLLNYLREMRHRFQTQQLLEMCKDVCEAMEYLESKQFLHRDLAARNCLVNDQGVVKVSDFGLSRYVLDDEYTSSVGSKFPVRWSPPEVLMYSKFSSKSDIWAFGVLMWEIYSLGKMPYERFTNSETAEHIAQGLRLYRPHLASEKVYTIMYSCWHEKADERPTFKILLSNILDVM

SMILES | inhibition at 10 µM [%]
C/C(=C\c1csc(C)n1)[C@@H]1C[C@@H]2O[C@@H]2CCC[C@H](C)[C@H](O)[C@@H](C)C(=O)C(C)(C)[C@@H](O)CC(=O)O1 [PCM-0095086] | 1.6
CN1c2ccccc2C(NCCCCCCC(=O)O)c2ccc(Cl)cc2S1(=O)=O (stereo not drawn) [PCM-0095097] | -13.2
CN1CCCCC1Cn1cc(C(=O)c2cc([N+](=O)[O-])ccc2I)c2ccccc21 (stereo not drawn) [PCM-0095105] | 22.6

Same assay, conditions: read-out: BTK inhibition (%), 0.75 uM BTK, […] probe 3l, 15 min preincubation

SMILES | inhibition at 10 µM [%]
CCNC(=O)CCC/C=C\C[C@@H]1[C@@H](/C=C/[C@@H](O)CCc2ccccc2)[C@H](O)C[C@@H]1O [PCM-0095085] | 15.2
C[C@@]1(c2cc(-c3cncnc3)c(F)cc2F)CCSC(N)=N1 [PCM-0095088] | -25.7
CCS(=O)(=O)Nc1ccc2[nH]c(O)c(C(=Nc3ccc(CN4CCCCC4)cc3)c3ccccc3)c2c1 [PCM-0095089] | 82.1
CN(C)Cc1cccc(N=C(c2ccccc2)c2c(O)[nH]c3cc(C(N)=O)ccc23)c1 [PCM-0095090] | 5.5
CN(C)Cc1cccc(N=C(c2ccccc2)c2c(O)[nH]c3cc(C(=O)N(C)C)ccc23)c1 [PCM-0095091] | 1.4
NC(=O)Nc1cc(-c2cccc(F)c2)sc1C(=O)N[C@H]1CCCNC1 [PCM-0095092] | 86.9
COCCOc1ccc2c(c1)ncn2-c1ccc2cccc(N3CCC(N)CC3)c2n1 [PCM-0095094] | -18.6
Cc1ccc2c(=O)c3cccc(CC(=O)O)c3oc2c1C [PCM-0095095] | -7.8
N#C[C@@H]1C[C@@H]2C[C@@H]2N1C(=O)[C@@H](N)C12CC3CC(CC(O)(C3)C1)C2 [PCM-0095098] | -22.6
Cc1cn([C@@H]2C[C@@H](O)[C@H](CO)O2)c(=O)[nH]c1=O [PCM-0095099] | -6.2
CN(C)CC/C=C1/c2ccccc2Sc2ccc(Cl)cc21 [PCM-0095101] | 10.9
O=C1[C@H](CC[C@H](O)c2ccc(F)cc2)[C@@H](c2ccc(O)cc2)N1c1ccc(F)cc1 [PCM-0095103] | 31
NC(=O)C1CCCc2c1[nH]c1ccc(Cl)cc21 (stereo not drawn) [PCM-0095104] | -3.4
Cc1cc(NC(=O)Nc2ccc(N(C)C)cc2)c2cc(F)cc(F)c2n1 [PCM-0095106] | 6.2
CCOc1ccc(Cc2cc([C@@H]3O[C@H](CO)[C@@H](O)[C@H](O)[C@H]3O)ccc2Cl)cc1 [PCM-0095107] | -2.1
COc1ccc(-c2nc3ccc(C4=NNC(=O)CC4C)cc3[nH]2)cc1 (stereo not drawn) [PCM-0095109] | -21.8
COc1ccc(-c2ccc3c(N4CCOC[C@@H]4C)nc(N4CCOC[C@@H]4C)nc3n2)cc1CO [PCM-0095110] | -8.3
CCCCCCCCCCCCc1ccc(S(=O)(=O)Nc2nncs2)cc1 [PCM-0095111] | 53.8
CCCNC(=O)Nc1ccc(Oc2ncnc3cc(OC)c(OC)cc23)cc1Cl [PCM-0095113] | -11
COc1cc([C@@H]2c3cc4c(cc3[C@@H](O[C@@H]3O[C@@H]5CO[C@@H](c6cccs6)O[C@H]5[C@H](O)[C@H]3O)[C@H]3COC(=O)[C@H]23)OCO4)cc(OC)c1O [PCM-0095114] | 24.1
CCOC(=O)O[C@]1(C(=O)OCCl)CC[C@H]2[C@@H]3CCC4=CC(=O)C=C[C@]4(C)[C@H]3[C@@H](O)C[C@@]21C [PCM-0095115] | 13.8
C[C@H](C(=O)O)c1ccc(-c2ccccc2)c(F)c1 [PCM-0095117] | -2.1
NC(=O)c1ncn([C@@H]2O[C@H](CO)[C@@H](O)[C@H]2O)c1N [PCM-0095118] | 4.8

SMILES | inhibition at 10 µM [%]
Clc1ccc(C2(c3ccc(-c4cn[nH]c4)cc3)CCNCC2)cc1 [PCM-0095120] | 6.9
CCN1CCN(C(=O)Cc2ccc(Nc3ncc(F)c(Nc4ccc(C(=O)Nc5ccccc5Cl)cc4)n3)cc2)CC1 [PCM-0095121] | 40.7
Cc1ccc(C(=O)N(CCCN)[C@@H](c2nc3cc(Cl)ccc3c(=O)n2Cc2ccccc2)C(C)C)cc1 [PCM-0095123] | 11.7
Cc1ccc(NC(=O)C2(c3ccc4c(c3)OC(F)(F)O4)CC2)nc1-c1cccc(C(=O)O)c1 [PCM-0095124] | -9.3
Cn1cncc1[C@@](N)(c1ccc(Cl)cc1)c1ccc2c(c1)c(-c1cccc(Cl)c1)cc(=O)n2C [PCM-0095125] | 17.9
Nc1cccc2c1C(=O)N(C1CCC(=O)NC1=O)C2=O (stereo not drawn) [PCM-0095126] | 11
CCc1cccc(CC)c1NC(=O)N1Cc2[nH]nc(NC(=O)c3ccc(N4CCN(C)CC4)cc3)c2C1 [PCM-0095127] | 65.5
O=C(NOCC(O)CO)c1cc(Br)c(F)c(F)c1Nc1ccc(I)cc1F (stereo not drawn) [PCM-0095128] | -19.3
COc1ccc(C2(C#N)CCC(C(=O)O)CC2)cc1OC1CCCC1 (stereo not drawn) [PCM-0095129] | -29.6
CCOC(=O)c1ccc(C#Cc2ccc3c(c2)C(C)(C)CCS3)nc1 [PCM-0095130] | -16.6
COc1nc(C)cnc1NS(=O)(=O)c1cccnc1-c1ccc(-c2nnco2)cc1 [PCM-0095131] | 3.4
C[C@@H]1CN(CC(=O)Nc2ccc3c(c2)Cc2cccc(-c4cc(=O)cc(N5CCOCC5)o4)c2S3)C[C@H](C)O1 [PCM-0095132] | 26.2
COC(=O)N[C@H](C(=O)N[C@@H](Cc1ccccc1)[C@@H](O)CN(Cc1ccc(-c2ccccn2)cc1)NC(=O)[C@@H](NC(=O)OC)C(C)(C)C)C(C)(C)C [PCM-0095133] | -10.9
CC(C)c1cnn2c(NCc3ccccc3)cc(NCCCCCCN)nc12 [PCM-0095134] | -25.5
O=C(NCc1ccccc1)c1csc(Nc2ccncn2)n1 [PCM-0095135] | -9
Cc1ccc(-n2nc(C(C)(C)C)cc2NC(=O)Nc2ccc(OCCN3CCOCC3)c3ccccc23)cc1 [PCM-0095136] | 9.7
CCC(=O)OCC(=O)[C@@]1(OC(=O)CC)[C@@H](C)C[C@H]2[C@@H]3CCC4=CC(=O)C=C[C@]4(C)[C@@]3(F)[C@@H](O)C[C@@]21C [PCM-0095138] | -9.3
C[C@H]1C[C@H]2[C@@H]3CCC4=CC(=O)C=C[C@]4(C)[C@H]3C(=O)C[C@]2(C)[C@@]1(O)C(=O)CO [PCM-0095139] | 29
CCCCC(=O)O[C@]1(C(=O)CO)[C@@H](C)C[C@H]2[C@@H]3CCC4=CC(=O)C=C[C@]4(C)[C@@]3(F)[C@@H](O)C[C@@]21C [PCM-0095140] | -15.9
CN1CCN(c2c(F)cc3c(=O)c(C(=O)O)cn4c3c2OCN4C)CC1 [PCM-0095142] | 0
COc1ccc2cc(-c3nc(-c4ccc([S+](C)[O-])cc4)[nH]c3-c3ccncc3)ccc2c1 (stereo not drawn) [PCM-0095143] | 33.8
O=S(=O)(NCCNC/C=C/c1ccc(Br)cc1)c1cccc2cnccc12 [PCM-0095146] | -22.8
Nc1cccc(-c2cc3c(Oc4cccc(O)c4)ncnc3[nH]2)c1 [PCM-0095147] | 82.1

SMILES | inhibition at 10 µM [%]
Cc1[nH]c(/C=C2\C(=O)Nc3ccccc32)c(C)c1CCC(=O)O [PCM-0095149] | 52.4
COc1ccc(-n2nc(C(N)=O)c3c2C(=O)N(c2ccc(N4CCCCC4=O)cc2)CC3)cc1 [PCM-0095150] | -7.8
CC1=C(C(=O)Nc2cc3cn[nH]c3cc2F)C(c2ccc(C(F)(F)F)cc2)CC(=O)N1 (stereo not drawn) [PCM-0095153] | 48.3
O=C(Nc1cccc2c(=O)cc(-c3nn[nH]n3)oc12)c1ccc(OCCCCc2ccccc2)cc1 [PCM-0095155] | 73.8
CCC[S+]([O-])c1ccc2nc(NC(=O)OC)[nH]c2c1 (stereo not drawn) [PCM-0095157] | 20.2
CC1CCC(C(=O)N(c2cc(C#CC(C)(C)C)sc2C(=O)O)C2CCC(O)CC2)CC1 (stereo not drawn) [PCM-0095160] | 2.3
O[C@@H](COc1cccc2ncccc12)CN1CCN(C2c3ccccc3[C@@H]3[C@H](c4ccccc42)C3(F)F)CC1 (stereo partly drawn) [PCM-0095161] | 103
COc1cc(C(C)=O)ccc1OCCCN1CCC(c2noc3cc(F)ccc23)CC1 [PCM-0095163] | -16.3
Cn1cc(/C=C/C(=O)c2cccc(F)c2)cc1/C=C/C(=O)NO [PCM-0095164] | 34.2
COc1ccc(S(=O)(=O)N(C(C)=O)c2ccccc2/C=C/c2cc[n+]([O-])cc2)cc1 [PCM-0095165] | -18.6
O=C(O)c1ccc(-n2nc(-c3ccccc3O)nc2-c2ccccc2O)cc1 [PCM-0095168] | 36.6
CC(C)(C)C(=O)OCOP(=O)(COCCn1cnc2c(N)ncnc21)OCOC(=O)C(C)(C)C [PCM-0095170] | 3.9
CC(C)CC(=O)Nc1n[nH]c2c1CN(C(=O)C1CCN(C)CC1)C2(C)C [PCM-0095172] | 17.9
CC(=O)Nc1nc(C)c(-c2ccc(Cl)c(S(=O)(=O)NCCO)c2)s1 [PCM-0095173] | -10.3
Cc1ccc(C(=O)Nc2ccc(CN3CCN(C)CC3)c(C(F)(F)F)c2)cc1C#Cc1cnc2cccnn12 [PCM-0095174] | 92.4
CC(C)(C)Cn1c(N)nc2ccc(-c3[nH]c(C(C)(C)C)nc3-c3ccc(F)cc3)nc21 [PCM-0095175] | -5.1
C#CCC(Cc1cnc2nc(N)nc(N)c2n1)c1ccc(C(=O)N[C@@H](CCC(=O)O)C(=O)O)cc1 (stereo partly drawn) [PCM-0095176] | 1.6
CN(C)[C@@H](CCOc1cccc2ccccc12)c1ccccc1 [PCM-0095178] | 6.2
CC1=C(C(=O)O)N2C(=O)[C@@H](NC(=O)[C@H](N)c3ccccc3)[C@H]2SC1 [PCM-0095179] | 4.3
CC1(C)O[C@@H]2C[C@H]3[C@@H]4CCC5=CC(=O)C=C[C@]5(C)[C@@]4(F)[C@@H](O)C[C@]3(C)[C@]2(C(=O)CO)O1 [PCM-0095180] | 6.9
CCCCCCCCCCC[C@@H](C[C@@H]1OC(=O)[C@H]1CCCCCC)OC(=O)[C@H](CC(C)C)NC=O [PCM-0095181] | -13.2
CCC[C@H](N[C@@H](C)C(=O)N1[C@H](C(=O)O)C[C@@H]2CCCC[C@@H]21)C(=O)OCC [PCM-0095182] | -4.3
CO[C@H]1/C=C/O[C@@]2(C)Oc3c(C)c(O)c4c(O)c(c5c(c4c3C2=O)=NC2(CCN(CC(C)C)CC2)N=5)NC(=O)/C(C)=C\C=C\[C@H](C)[C@H](O)[C@@H](C)[C@@H](O)[C@@H](C)[C@H](OC(C)=O)[C@@H]1C [PCM-0095185] | 7
